Measurements as given in patent publication US20080221134A1, “8-ALKYNYLXANTHINES AND DERIVATIVES” (priority 2006, published 2008).

Experiments:
Rat A1 AR = molecular target: T1, Rat A1 AR (Rattus norvegicus, UniProt P25099); assay: Radioligand binding assay 1, rat A1 adenosine receptor; conditions: rat cortex, [3H]CCPA
T1 construct: Rat brain preparations were used for A1- and A2A adenosine receptor (AR); from tissue; host or cells: rat cortex
T1 sequence (P25099 1-326): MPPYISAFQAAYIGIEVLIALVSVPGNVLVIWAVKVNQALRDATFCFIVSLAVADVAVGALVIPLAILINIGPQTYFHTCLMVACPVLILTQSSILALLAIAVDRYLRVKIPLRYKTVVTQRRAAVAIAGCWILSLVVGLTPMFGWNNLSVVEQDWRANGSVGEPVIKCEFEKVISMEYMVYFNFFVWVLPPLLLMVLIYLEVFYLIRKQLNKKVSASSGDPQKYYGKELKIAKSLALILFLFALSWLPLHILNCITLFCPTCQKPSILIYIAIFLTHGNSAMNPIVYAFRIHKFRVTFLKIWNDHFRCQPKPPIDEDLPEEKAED
Method: (§1) Rat brain preparations were used for A1- and A2A adenosine receptor (AR) and human recombinant cell samples for A1-, A2A- and A3 adenosine receptor radioligand binding studies. Affinity and selectivity was tested in displacement experiments with following radioligands: [^3H]CCPA for A1-adenosine receptors, [^3H]MSX-2 for A2A-receptors and [^3H]PSB-11 for A3-receptors. Results of these experiments are depicted in table 2b (human data) and table 2a (rat data). Radioligand binding test systems are e.g. generally described by Muller et al., Curr. Pharm. Des., 1996, 2, 501 and Weyler et al., ChemMedChem 2006, 1, 891 and references cited therein) These documents are incorporated herein by reference.

Rat A2A AR = molecular target: T2, Rat A2A AR (Rattus norvegicus, UniProt P30543); assay: Radioligand binding assay 1, rat A2A adenosine receptor; conditions: rat striatum, [3H]MSX-2
T2 construct: A2A adenosine receptors from rat striatum; from tissue; host or cells: rat striatum
T2 sequence (P30543 whole entry): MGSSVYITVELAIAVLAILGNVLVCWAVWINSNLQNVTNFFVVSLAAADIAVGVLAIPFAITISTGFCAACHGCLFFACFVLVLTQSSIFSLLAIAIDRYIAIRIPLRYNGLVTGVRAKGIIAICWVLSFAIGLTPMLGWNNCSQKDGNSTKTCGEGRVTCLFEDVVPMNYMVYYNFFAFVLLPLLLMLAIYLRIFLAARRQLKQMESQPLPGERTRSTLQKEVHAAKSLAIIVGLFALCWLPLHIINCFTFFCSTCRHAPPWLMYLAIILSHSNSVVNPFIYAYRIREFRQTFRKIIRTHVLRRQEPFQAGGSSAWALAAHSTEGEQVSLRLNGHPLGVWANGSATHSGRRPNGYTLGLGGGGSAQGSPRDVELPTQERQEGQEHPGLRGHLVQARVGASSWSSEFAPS
Method: as §1

SMILES | Ki (Rat A1 AR) [nM] | Ki (Rat A2A AR) [nM]
C#CCn1c(=O)c2c(nc(C#Cc3ccc(OC)c(OC)c3)n2C)n(CC(C)C)c1=O [drawing 517] | ≥ 1000 | 5.54 ± 1.3
C#CCn1c(=O)c2c(nc(C#Cc3ccc(OC)c(OC)c3)n2C)n(CC(=O)O)c1=O | > 1000 | 272 ± 57
CCn1c(=O)n(Cc2ccco2)c(=O)c2c1nc(C#Cc1ccc(OC)c(OC)c1)n2C | 208 ± 54 | 90.9 ± 7
C#CCn1c(=O)c2c(nc(C#Cc3ccc(OC)c(OC)c3)n2C)n(CC(=O)OC)c1=O [drawing 546] | 286 ± 11 | 36.5 ± 6.1
C#CCn1c(=O)c2c(nc(C#Cc3ccc(OC)c(OC)c3)n2C)n(CCC(F)(F)F)c1=O | 234 ± 47 | 24.2 ± 3.8
C#CCn1c(=O)c2c(nc(C#Cc3ccc(OC)c(OC)c3)n2C)n(CC)c1=O [drawing 487] | > 3000 | 47.2 ± 7.3
C#CCn1c(=O)c2c(nc(C#Cc3ccc(OC)c(F)c3)n2C)n(C)c1=O | > 1000 | 194 ± 39
C#Cn1c(=O)c2c(nc(C#Cc3ccc(Cl)c(Cl)c3)n2C)n(C)c1=O | > 1000 | > 1000
C#CCn1c(=O)c2c(nc(C#Cc3ccc(OC)c(OC)c3)n2C)n(CC(=C)C)c1=O | > 1000 | 28.6 ± 9.7
C#CCn1c(=O)c2c(nc(C#Cc3ccc(OC)c(OC)c3)n2C)n(Cc2ccsc2)c1=O | > 1000 | 28 ± 4.2
C#CCn1c(=O)c2c(nc(C#Cc3ccc(OCC)c(OCC)c3)n2C)n(CC)c1=O [drawing 497] | > 1000 | 166 ± 50
C#CCn1c(=O)c2c(nc(C#Cc3cccc(OC)c3)n2CC#CC)n(C)c1=O | 96 ± 16.4 | 36.2 ± 4.5
C#CCn1c(=O)c2c(nc(C#Cc3ccc(OC)c(OC)c3)n2C)n(CC=C)c1=O | > 1000 | 9.5 ± 1.6
C#CCn1c(=O)c2c(nc(C#Cc3ccc(OC)c(OC)c3)n2C)n(Cc2ccno2)c1=O | > 1000 | 17.9 ± 5.5
C#CCn1c(=O)c2c(nc(C#Cc3ccc(OC)c(OC)c3)n2C)n(C(C)C)c1=O [drawing 516] | ≥ 1000 | 118 ± 19
C#CCn1c(=O)c2c(nc(C#Cc3ccc(OC)c(OC)c3)n2C)n(Cc2ccoc2)c1=O [drawing 509] | > 1000 | 5.16 ± 1.91
C#CCn1c(=O)c2c(nc(C#Cc3ccc(OC)c(OC)c3)n2C)n(C(C)C(C)=O)c1=O (stereo not shown) [drawing 524] | 157 ± 12 | 16 ± 6
C#CCn1c(=O)c2c(nc(C#Cc3ccc(OC)c(OC)c3)n2CC#C)n(CC)c1=O | > 1000 | 132 ± 60
C#CCn1c(=O)c2c(nc(C#Cc3cccc(OCc4ccoc4)c3)n2C)n(C)c1=O [drawing 479] | > 1000 | 66.4 ± 19
C#CCn1c(=O)c2c(nc(C#Cc3ccc(OC)c(OC)c3)n2C)n(Cc2ccco2)c1=O [drawing 503] | 76.8 ± 22.9 | 6.74 ± 1
C#CCn1c(=O)c2c(nc(C#Cc3ccc(OC)c(OC)c3)n2C)n(CC(F)(F)F)c1=O | ≥ 1000 | 12.7 ± 2.8
C#CCn1c(=O)c2c(nc(C#Cc3ccc(OCC)c(OCC)c3)n2C)n(C)c1=O | > 1000 | 951 ± 224
C#CCn1c(=O)[nH]c2nc(C#Cc3ccc(OC)c(OC)c3)n(C)c2c1=O [drawing 483] | ≥ 10000 | 15 ± 2
C#CCn1c(=O)c2c(nc(C#Cc3ccc(OC)c(OC)c3)n2C)n(CC#N)c1=O [drawing 500] | > 1000 | 40 ± 0.6
C#CCn1c(=O)c2c(nc(C#Cc3cc(C)c(C)cc3C)n2C)n(C)c1=O | > 10000 | 4340 ± 840
C#CCn1c(=O)c2c(nc(C#Cc3ccc(F)c(OC)c3)n2C)n(C)c1=O | > 1000 | 70.3 ± 5.39
C#CCn1c(=O)c2c(nc(C#Cc3ccc(OC)c(OC)c3)n2C)n(CC(C)=O)c1=O [drawing 525] | > 1000 | 18.5 ± 5
C#CCn1c(=O)c2c(nc(C#Cc3ccc(OC)c(OC)c3)n2C)n(Cc2cccs2)c1=O [drawing 520] | > 1000 | 103 ± 21
C#CCn1c(=O)c2c(nc(C#Cc3ccc(OC)c(OC)c3)n2C)n(Cc2cnc[nH]2)c1=O [drawing 527] | > 1000 | 28.8 ± 4.1
C#CCn1c(=O)c2c(nc(C#Cc3cccc(OC)c3)n2CC#C)n(C)c1=O [drawing 467] | ≥ 10000 | 90 ± 35.7

Results, then the molecule that gave them:

Ki (Rat A1 AR) [nM] | Ki (Rat A2A AR) [nM] | SMILES
> 10000 | 46 ± 9 | C#CCn1c(=O)c2c(nc(C#Cc3cccc(Cl)c3)n2C)n(C)c1=O [drawing 461]
> 10000 | 76.3 ± 17.1 | C#CCn1c(=O)c2c(nc(C#Cc3cccc(C)c3)n2C)n(CC)c1=O [drawing 486]
> 1000 | 132 ± 96 | C#CCn1c(=O)c2c(nc(C#Cc3ccc(Cl)c(Cl)c3)n2C)n(CC)c1=O [drawing 550]
> 1000 | 41.8 ± 4.3 | C#CCn1c(=O)c2c(nc(C#Cc3cccc(OC)c3)n2C)n(CC=C)c1=O [drawing 490]
467 ± 6 | 47 ± 2 | C#CCn1c(=O)c2c(nc(C#Cc3cccc(C)c3)n2C)n(CCCO)c1=O [drawing 534]
≥ 10000 | 152 ± 63 | C#CCn1c(=O)c2c(nc(C#Cc3cccc(OCC=C)c3)n2C)n(C)c1=O
> 10000 | 466 ± 36 | C#CCn1c(=O)c2c(nc(C#Cc3cccc(F)c3)n2C)n(C)c1=O
≥ 10000 | 117 ± 25 | C#CCn1c(=O)c2c(nc(C#Cc3cccc(OCCO)c3)n2C)n(C)c1=O [drawing 469]
> 10000 | 80.7 ± 21.1 | C#CCn1c(=O)c2c(nc(C#Cc3cccc(OC)c3)n2C)n(CC#C)c1=O
≥ 1000 | 52.6 ± 19.5 | C#CCn1c(=O)c2c(nc(C#Cc3ccc(OC)c(F)c3)n2C)n(CC)c1=O
> 1000 | 161 ± 35 | C#CCn1c(=O)c2c(nc(C#Cc3cccc(OC)c3)n2C)n(CCN(C)C)c1=O [drawing 536]
> 1000 | 45.9 ± 13.5 | C#CCn1c(=O)c2c(nc(C#Cc3ccc(OC)c(OC)c3)n2C)n(CCOC)c1=O [drawing 498]
142 ± 8 | 11.8 ± 1.6 | C#CCn1c(=O)c2c(nc(C#Cc3cccc(OC)c3)n2C)n(CCCO)c1=O [drawing 484]
≥ 10000 | 211 ± 46 | C#CCn1c(=O)c2c(nc(C#Cc3cccc(OCCCO)c3)n2C)n(C)c1=O [drawing 468]
136 ± 19 | 37 ± 11 | C#CCn1c(=O)c2c(nc(C#Cc3ccc(OC)c(OC)c3)n2C)n(CCCOP(=O)(O)O)c1=O [drawing 494]
> 1000 | 42.3 ± 5.7 | C#CCn1c(=O)c2c(nc(C#Cc3ccc(OC)c(OC)c3)n2C)n(CC(O)CO)c1=O (stereo not shown) [drawing 537]
810 ± 145 | 54 ± 5 | C#CCn1c(=O)c2c(nc(C#Cc3ccc(OC)c(OC)c3)n2C)n(CCN(C)C)c1=O [drawing 489]
> 10000 | 30.9 ± 8 | C#CCn1c(=O)c2c(nc(C#Cc3cccc(OC)c3)n2C)n(C)c1=O [drawing 456]

Ki (Rat A1 AR) [nM] | Ki (Rat A2A AR) [nM] | SMILES
≥ 10000 | 151 ± 19 | C#CCn1c(=O)c2c(nc(C#Cc3cccc(Br)c3)n2C)n(C)c1=O [drawing 462]
> 1000 | 103 ± 15 | C#CCn1c(=O)c2c(nc(C#Cc3cccc(OC)c3)n2C)n(CCO)c1=O [drawing 491]
> 1000 | 90 ± 25 | C#CCn1c(=O)c2c(nc(C#Cc3cccc(OC)c3)n2C)n(CCBr)c1=O
> 1000 | 44 ± 6.2 | C#CCn1c(=O)c2c(nc(C#Cc3ccc(OC)c(OC)c3)n2C)n(CCCOC)c1=O [drawing 506]
≥ 1000 | 42.3 ± 5.7 | C#CCn1c(=O)c2c(nc(C#Cc3ccc(OC)c(OC)c3)n2C)n(CC(O)CO)c1=O (stereo not shown) [drawing 493]
> 1000 | 38.2 ± 12 | C#CCn1c(=O)c2c(nc(C#Cc3cccc(OC)c3)n2C)n(CC2CO2)c1=O (stereo not shown)
425 ± 99 | 173 ± 35 | C#CCn1c(=O)c2c(nc(C#Cc3cccc(O)c3)n2C)n(C)c1=O [drawing 475]
> 1000 | 76.4 ± 32.9 | C#CCn1c(=O)c2c(nc(C#Cc3ccc(OC)c(OC)c3)n2C)n(CCC#N)c1=O [drawing 501]
≥ 1000 | 120 ± 18 | C#CCn1c(=O)c2c(nc(C#Cc3cccc(OC)c3)n2C)n(CCC2OCCO2)c1=O
> 1000 | 35.6 ± 14.1 | C#CCn1c(=O)c2c(nc(C#Cc3ccc(OC)c(OC)c3)n2C)n(CCOCC)c1=O
> 1000 | 69.8 ± 17.1 | C#CCn1c(=O)c2c(nc(C#Cc3cccc(OC)c3)n2C)n(CC(O)CO)c1=O (stereo not shown) [drawing 492]
> 1000 | 108 ± 31 | C#CCn1c(=O)c2c(nc(C#Cc3ccsc3)n2C)n(CC)c1=O [drawing 510]
> 1000 | 45.5 ± 10.4 | C#CCn1c(=O)c2c(nc(C#Cc3ccc(OC)c(OC)c3)n2C)n(CCO)c1=O [drawing 499]
> 1000 | 22.9 ± 7.6 | C#CCn1c(=O)c2c(nc(C#Cc3ccc(OC)c(OC)c3)n2C)n(CCCC#N)c1=O [drawing 508]
> 1000 | 56.2 ± 12.9 | C#CCn1c(=O)c2c(nc(C#Cc3cccc(OC)c3)n2CC#N)n(C)c1=O
≥ 1000 | 13.4 ± 6.5 | C#CCn1c(=O)c2c(nc(C#Cc3ccc(OC)c(OC)c3)n2C)n(CCC)c1=O [drawing 515]
≥ 1000 | 9.99 ± 0.7 | C#CCn1c(=O)c2c(nc(C#Cc3ccc(OC)c(OC)c3)n2C)n(CCF)c1=O [drawing 518]
